Where a SMILES comes first, the peptide text is derived from it. [ ]: non-standard residue; d: D form.
System: blood cell subsets (cell surface antigens)
Assay: In vivo/ex vivo immunophenotyping in the blood, mice treated 4 consecutive days, blood taken on day 5
Parameters: species or system C57BL/6 mice
Protocol: C57BL.backslash.6 mice are treated with 0, 50, 100, 200, and 300 mg/kg of drug (in saline) for 4 consecutive days. Blood is taken by cardiac puncture on day 5, and the lymphocytes are isolated from spleen in the following manner:
1. Immunophenotyping (blood and spleen)
Cell immunophenotyping is performed on blood and spleen. The following cell surface antigens are analyzed:
CD4 (T helper/inducer, binds class II-restricted T cells);
CD8 (cytotoxic T cells, CTL adhesion);
MAC-1 (monocyte/macrophage);
NK (natural killer cells);
CD45 (all leukocytes, protein tyrosine phosphatase).

NCCCC[C@@H](N)C(=O)N[C@@H](CC(N)=O)C(=O)N1CCC[C@H]1C(=O)N[C@@H](Cc1ccc(O)cc1)C(=O)O [PEPTIDE #5, H-(D-Lys)-Asn-Pro-Tyr-OH] (H-[dK]NPY-OH)
change of relative percentage of T cells (TCR, CD4+ and CD8+ cell surface antigen) (in words): reduced in a significant manner
CD4+ CD8+ cell subset, relative percentage, MEAN (50 mg/kg, first assay): 2.03
CD4+ CD8- cell subset, relative percentage, MEAN (50 mg/kg, first assay): 18.15
CD4+ CD11b+ cell subset, relative percentage, MEAN (50 mg/kg, first assay): 1.18
CD4+ CD11b- cell subset, relative percentage, MEAN (50 mg/kg, first assay): 22.55
CD4- CD8+ cell subset, relative percentage, MEAN (50 mg/kg, first assay): 5.15
CD4- CD8- cell subset, relative percentage, MEAN (50 mg/kg, first assay): 74.68
CD4- CD11b+ cell subset, relative percentage, MEAN (50 mg/kg, first assay): 12.08
CD4- CD11b- cell subset, relative percentage, MEAN (50 mg/kg, first assay): 64.15
CD45+ CD4+ cell subset, relative percentage, MEAN (50 mg/kg, first assay): 17.00
CD45+ CD4- cell subset, relative percentage, MEAN (50 mg/kg, first assay): 57.68
CD45+ CD8+ cell subset, relative percentage, MEAN (50 mg/kg, first assay): 6.53
CD45+ CD8- cell subset, relative percentage, MEAN (50 mg/kg, first assay): 62.48
CD45- CD4+ cell subset, relative percentage, MEAN (50 mg/kg, first assay): 3.15
CD45- CD4- cell subset, relative percentage, MEAN (50 mg/kg, first assay): 22.15
CD45- CD8- cell subset, relative percentage, MEAN (50 mg/kg, first assay): 30.35
CD45- CDE8+ cell subset, relative percentage, MEAN (50 mg/kg, first assay): 0.68
Ly5(B) cell subset, relative percentage, MEAN (50 mg/kg, first assay): 57.88
NK+ CD3+ cell subset, relative percentage, MEAN (50 mg/kg, first assay): 2.13
NK+ CD3- cell subset, relative percentage, MEAN (50 mg/kg, first assay): 5.70
NK- CD3+ cell subset, relative percentage, MEAN (50 mg/kg, first assay): 33.30
NK- CD3- cell subset, relative percentage, MEAN (50 mg/kg, first assay): 58.93
TCR(T) cell subset, relative percentage, MEAN (50 mg/kg, first assay): 31.53
CD4+ CD8+ cell subset, relative percentage, MEAN (50 mg/kg, second assay): 0.43
CD4+ CD8- cell subset, relative percentage, MEAN (50 mg/kg, second assay): 20.65
CD4+ CD11b+ cell subset, relative percentage, MEAN (50 mg/kg, second assay): 0.13
CD4+ CD11b- cell subset, relative percentage, MEAN (50 mg/kg, second assay): 15.38
CD4- CD8+ cell subset, relative percentage, MEAN (50 mg/kg, second assay): 7.70
CD4- CD8- cell subset, relative percentage, MEAN (50 mg/kg, second assay): 71.20
CD4- CD11b+ cell subset, relative percentage, MEAN (50 mg/kg, second assay): 6.73
CD4- CD11b- cell subset, relative percentage, MEAN (50 mg/kg, second assay): 77.78
CD45+ CD4+ cell subset, relative percentage, MEAN (50 mg/kg, second assay): 18.48
CD45+ CD4- cell subset, relative percentage, MEAN (50 mg/kg, second assay): 68.23
CD45+ CD8+ cell subset, relative percentage, MEAN (50 mg/kg, second assay): 8.10
CD45+ CD8- cell subset, relative percentage, MEAN (50 mg/kg, second assay): 79.70
CD45- CD4+ cell subset, relative percentage, MEAN (50 mg/kg, second assay): 2.25
CD45- CD4- cell subset, relative percentage, MEAN (50 mg/kg, second assay): 11.05
CD45- CD8+ cell subset, relative percentage, MEAN (50 mg/kg, second assay): 0.03
CD45- CD8- cell subset, relative percentage, MEAN (50 mg/kg, second assay): 12.15
Ly5(B) cell subset, relative percentage, MEAN (50 mg/kg, second assay): 58.6
NK+ CD3+ cell subset, relative percentage, MEAN (50 mg/kg, second assay): 3.00
NK+ CD3- cell subset, relative percentage, MEAN (50 mg/kg, second assay): 7.88
NK- CD3+ cell subset, relative percentage, MEAN (50 mg/kg, second assay): 31.05
NK- CD3- cell subset, relative percentage, MEAN (50 mg/kg, second assay): 58.10
TCR(T) cell subset, relative percentage, MEAN (50 mg/kg, second assay): 35.73
CD4+ CD8+ cell subset, relative percentage, MEAN (100 mg/kg, first assay): 2.10
CD4+ CD8- cell subset, relative percentage, MEAN (100 mg/kg, first assay): 17.90
CD4+ CD11b+ cell subset, relative percentage, MEAN (100 mg/kg, first assay): 1.10
CD4+ CD11b- cell subset, relative percentage, MEAN (100 mg/kg, first assay): 20.30
CD4- CD8+ cell subset, relative percentage, MEAN (100 mg/kg, first assay): 6.03
CD4- CD8- cell subset, relative percentage, MEAN (100 mg/kg, first assay): 73.95
CD4- CD11b+ cell subset, relative percentage, MEAN (100 mg/kg, first assay): 11.03
CD4- CD11b- cell subset, relative percentage, MEAN (100 mg/kg, first assay): 67.65
CD45+ CD4+ cell subset, relative percentage, MEAN (100 mg/kg, first assay): 16.78
CD45+ CD4- cell subset, relative percentage, MEAN (100 mg/kg, first assay): 58.75
CD45+ CD8+ cell subset, relative percentage, MEAN (100 mg/kg, first assay): 7.10
CD45+ CD8- cell subset, relative percentage, MEAN (100 mg/kg, first assay): 63.45
CD45- CD4+ cell subset, relative percentage, MEAN (100 mg/kg, first assay): 3.25
CD45- CD4- cell subset, relative percentage, MEAN (100 mg/kg, first assay): 21.23
CD45- CD8- cell subset, relative percentage, MEAN (100 mg/kg, first assay): 28.38
CD45- CDE8+ cell subset, relative percentage, MEAN (100 mg/kg, first assay): 1.03
Ly5(B) cell subset, relative percentage, MEAN (100 mg/kg, first assay): 58.73
NK+ CD3+ cell subset, relative percentage, MEAN (100 mg/kg, first assay): 2.43
NK+ CD3- cell subset, relative percentage, MEAN (100 mg/kg, first assay): 6.00
NK- CD3+ cell subset, relative percentage, MEAN (100 mg/kg, first assay): 33.58
NK- CD3- cell subset, relative percentage, MEAN (100 mg/kg, first assay): 57.95
TCR(T) cell subset, relative percentage, MEAN (100 mg/kg, first assay): 32.23
CD4+ CD8+ cell subset, relative percentage, MEAN (100 mg/kg, second assay): 0.33
CD4+ CD8- cell subset, relative percentage, MEAN (100 mg/kg, second assay): 25.00
CD4+ CD11b+ cell subset, relative percentage, MEAN (100 mg/kg, second assay): 0.50
CD4+ CD11b- cell subset, relative percentage, MEAN (100 mg/kg, second assay): 21.58
CD4- CD8+ cell subset, relative percentage, MEAN (100 mg/kg, second assay): 6.80
CD4- CD8- cell subset, relative percentage, MEAN (100 mg/kg, second assay): 67.83
CD4- CD11b+ cell subset, relative percentage, MEAN (100 mg/kg, second assay): 10.28
